Columns and labels:
[1] = Cytotoxicity against human RPMI8402 cells after 4 days by MTT assay; type: functional, cell-based; conditions: RPMI 8402, 96 h
[2] = target: T1, DNA topoisomerase 1 (Homo sapiens) (UniProt P11387); test: Inhibition of human topoisomerase 1 expressed in Escherichia coli assessed as YepG plasmid DNA cleavage
T1 sequence (whole entry): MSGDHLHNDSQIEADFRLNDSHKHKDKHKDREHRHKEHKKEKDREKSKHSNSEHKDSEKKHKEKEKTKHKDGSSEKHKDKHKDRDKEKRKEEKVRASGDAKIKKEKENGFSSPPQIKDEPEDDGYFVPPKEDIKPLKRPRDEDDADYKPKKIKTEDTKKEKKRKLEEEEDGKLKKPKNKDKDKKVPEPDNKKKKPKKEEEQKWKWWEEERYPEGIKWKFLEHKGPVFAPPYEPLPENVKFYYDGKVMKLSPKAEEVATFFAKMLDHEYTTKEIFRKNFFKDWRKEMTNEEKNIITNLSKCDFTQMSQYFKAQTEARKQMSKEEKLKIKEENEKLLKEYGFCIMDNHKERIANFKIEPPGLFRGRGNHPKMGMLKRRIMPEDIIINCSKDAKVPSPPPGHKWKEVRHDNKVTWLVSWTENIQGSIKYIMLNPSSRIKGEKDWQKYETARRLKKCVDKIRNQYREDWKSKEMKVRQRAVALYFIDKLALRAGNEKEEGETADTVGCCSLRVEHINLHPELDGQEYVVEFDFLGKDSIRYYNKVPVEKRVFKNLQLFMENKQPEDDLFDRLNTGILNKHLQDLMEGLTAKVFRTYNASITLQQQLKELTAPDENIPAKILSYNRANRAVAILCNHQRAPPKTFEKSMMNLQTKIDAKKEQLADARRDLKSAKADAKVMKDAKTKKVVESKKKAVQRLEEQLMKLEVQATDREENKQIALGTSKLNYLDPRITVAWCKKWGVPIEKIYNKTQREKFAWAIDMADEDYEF

[3] = Cytotoxicity against human KB3-1 cells after 4 days by MTT assay; type: functional, cell-based; conditions: KB 3-1, 96 h
P388 [4] = test: Cytotoxicity against mouse CPT45-resistant topoisomerase 1-deficient P388 cells after 4 days by MTT assay; type: functional, cell-based; conditions: P388, 96 h
P388 [5] = test: Cytotoxicity against mouse P388 cells after 4 days by MTT assay; type: functional, cell-based; conditions: P388, 96 h
[6] = Cytotoxicity against human multidrug resistant MDR1 overexpressing human KBV1 cells after 4 days by MTT assay; type: functional, cell-based; conditions: KB-V1, 96 h
[7] = Cytotoxicity against human camptothecin-resistant CPT-K5 cells after 4 days by MTT assay; type: functional, cell-based; conditions: CPT-K5, 96 h
[8] = Cytotoxicity against human multidrug resistant BCRP overexpressing human KBH5.0 cells after 4 days by MTT assay; type: functional, cell-based; conditions: KBH5.0 cell, 96 h
MDA-MB-231 [9] = test: Antitumor activity against human MDA-MB-231 cells xenografted in athymic nude mouse assessed as tumor volume on day 7 at initial dose of 2.0 mg/kg, po qd X 4/week and dose adjustments were made based upon effect or lack of effect on average body weight (29.3 mg/kg total dose); type: functional
MDA-MB-231 [10] = test: Antitumor activity against human MDA-MB-231 cells xenografted in athymic nude mouse assessed as tumor volume on day 21 at initial dose of 2.0 mg/kg, po qd X 4/week and dose adjustments were made based upon effect or lack of effect on average body weight (29.3 mg/kg total dose); type: functional
MDA-MB-231 [11] = test: Antitumor activity against human MDA-MB-231 cells xenografted in athymic nude mouse assessed as tumor volume on day 14 at initial dose of 1.0 mg/kg, ip qd X 4/week and dose adjustments were made based upon effect or lack of effect on average body weight (14.6 mg/kg total dose); type: functional; conditions: route intraperitoneal
MDA-MB-231 [12] = test: Antitumor activity against human MDA-MB-231 cells xenografted in athymic nude mouse assessed as tumor volume on day 31 at initial dose of 2.0 mg/kg, po qd X 4/week and dose adjustments were made based upon effect or lack of effect on average body weight (29.3 mg/kg total dose); type: functional
MDA-MB-231 [13] = test: Antitumor activity against human MDA-MB-231 cells xenografted in athymic nude mouse assessed as tumor volume on day 21 at initial dose of 1.0 mg/kg, ip qd X 4/week and dose adjustments were made based upon effect or lack of effect on average body weight (14.6 mg/kg total dose); type: functional; conditions: route intraperitoneal
MDA-MB-231 [14] = test: Antitumor activity against human MDA-MB-231 cells xenografted in athymic nude mouse assessed as tumor volume on day 14 at initial dose of 2.0 mg/kg, po qd X 4/week and dose adjustments were made based upon effect or lack of effect on average body weight (29.3 mg/kg total dose); type: functional
MDA-MB-231 [15] = test: Antitumor activity against human MDA-MB-231 cells xenografted in athymic nude mouse assessed as tumor volume on day 7 at initial dose of 1.0 mg/kg, ip qd X 4/week and dose adjustments were made based upon effect or lack of effect on average body weight (14.6 mg/kg total dose); type: functional; conditions: route intraperitoneal
MDA-MB-231 [16] = test: Antitumor activity against human MDA-MB-231 cells xenografted in athymic nude mouse assessed as tumor volume on day 31 at initial dose of 1.0 mg/kg, ip qd X 4/week and dose adjustments were made based upon effect or lack of effect on average body weight (14.6 mg/kg total dose); type: functional; conditions: route intraperitoneal
MDA-MB-231 [17] = test: Antitumor activity against human MDA-MB-231 cells xenografted in athymic nude mouse assessed as tumor volume on day 14 at initial dose of 3.0 mg/kg, po qd X 5/week for 2 weeks and dose adjustments were made based upon effect or lack of effect on average body weight (72.5 mg/kg total dose); type: functional
MDA-MB-231 [18] = test: Antitumor activity against human MDA-MB-231 cells xenografted in athymic nude mouse assessed as tumor volume on day 7 at initial dose of 2.0 mg/kg, ip qd X 5/week for 2 weeks and dose adjustments were made based upon effect or lack of effect on average body weight (32.5 mg/kg total dose); type: functional; conditions: route intraperitoneal
MDA-MB-231 [19] = test: Antitumor activity against human MDA-MB-231 cells xenografted in athymic nude mouse assessed as tumor volume on day 7 at initial dose of 3.0 mg/kg, po qd X 5/week for 2 weeks and dose adjustments were made based upon effect or lack of effect on average body weight (72.5 mg/kg total dose); type: functional
MDA-MB-231 [20] = test: Antitumor activity against human MDA-MB-231 cells xenografted in athymic nude mouse assessed as tumor volume on day 14 at initial dose of 2.0 mg/kg, ip qd X 5/week for 2 weeks and dose adjustments were made based upon effect or lack of effect on average body weight (32.5 mg/kg total dose); type: functional; conditions: route intraperitoneal
MDA-MB-231 [21] = test: Antitumor activity against human MDA-MB-231 cells xenografted in athymic nude mouse assessed as tumor volume on day 31 at initial dose of 2.0 mg/kg, ip qd X 5/week for 2 weeks and dose adjustments were made based upon effect or lack of effect on average body weight (32.5 mg/kg total dose); type: functional; conditions: route intraperitoneal
MDA-MB-231 [22] = test: Antitumor activity against human MDA-MB-231 cells xenografted in athymic nude mouse assessed as tumor volume on day 21 at initial dose of 2.0 mg/kg, ip qd X 5/week for 2 weeks and dose adjustments were made based upon effect or lack of effect on average body weight (32.5 mg/kg total dose); type: functional; conditions: route intraperitoneal
MDA-MB-231 [23] = test: Antitumor activity against human MDA-MB-231 cells xenografted in athymic nude mouse assessed as tumor volume on day 31 at initial dose of 3.0 mg/kg, po qd X 5/week for 2 weeks and dose adjustments were made based upon effect or lack of effect on average body weight (72.5 mg/kg total dose); type: functional
MDA-MB-231 [24] = test: Antitumor activity against human MDA-MB-231 cells xenografted in athymic nude mouse assessed as tumor volume on day 21 at initial dose of 3.0 mg/kg, po qd X 5/week for 2 weeks and dose adjustments were made based upon effect or lack of effect on average body weight (72.5 mg/kg total dose); type: functional

Row | Compound | IC50 [1] [nM] | REC [2] | IC50 [3] [nM] | IC50 (P388 [4]) [nM] | IC50 (P388 [5]) [nM] | IC50 [6] [nM] | IC50 [7] [nM] | IC50 [8] [nM] | further results
1 | CC[C@@]1(O)C(=O)OCc2c1cc1n(c2=O)Cc2cc3ccccc3nc2-1 [CAMPTOTHECIN] | 5 | 0.2 | 15 | > 10000 | 9 | – | – | – | –
2 | COc1cc2c(=O)n(CCN(C)C)c3c4cc5c(cc4ncc3c2cc1OC)OCO5 | 2 | 0.3 | 5 | – | – | 15 | 900 | 12 | –
3 | COc1cc2c(=O)n(CCN(Cc3ccccc3)C(C)C)c3c4cc5c(cc4nnc3c2cc1OC)OCO5 | 45 | 0.5 | 16 | 2300 | 21 | 75 | 3300 | 40 | –
4 | COc1cc2c(=O)n(CCNC(C)C)c3c4cc5c(cc4nnc3c2cc1OC)OCO5 | 3 | 0.08 | 0.5 | 110 | 2 | 7 | 300 | 2 | Activity (MDA-MB-231 [9]): 82 mm3; Activity (MDA-MB-231 [10]): 185 mm3; Activity (MDA-MB-231 [11]): 112 mm3; Activity (MDA-MB-231 [12]): 253 mm3; Activity (MDA-MB-231 [13]): 150 mm3; Activity (MDA-MB-231 [14]): 92 mm3; Activity (MDA-MB-231 [15]): 72 mm3; Activity (MDA-MB-231 [16]): 231 mm3
5 | COc1cc2c(=O)n(CCN(C)Cc3ccccc3)c3c4cc5c(cc4nnc3c2cc1OC)OCO5 | 40 | 0.4 | 35 | 2800 | 25 | 85 | > 10000 | 40 | –
6 | COc1cc2c(=O)n(CCN(C)CCN(C)C)c3c4cc5c(cc4nnc3c2cc1OC)OCO5 | 33 | 0.4 | 17 | 300 | 19 | 180 | 2200 | 250 | –
7 | COc1cc2c(=O)n(CCO)c3c4cc5c(cc4nnc3c2cc1OC)OCO5 | 13 | 0.3 | 10 | 700 | 12 | 18 | 1300 | 55 | –
8 | COc1cc2c(=O)n(CCn3ccnc3)c3c4cc5c(cc4nnc3c2cc1OC)OCO5 | 400 | 0.1 | 380 | > 10000 | 190 | 3300 | > 10000 | 3300 | –
9 | CNCCn1c(=O)c2cc(OC)c(OC)cc2c2nnc3cc4c(cc3c21)OCO4 | 3 | 0.03 | 0.7 | 200 | 1 | 23 | 230 | 18 | Activity (MDA-MB-231 [17]): 113 mm3; Activity (MDA-MB-231 [18]): 146 mm3; Activity (MDA-MB-231 [19]): 116 mm3; Activity (MDA-MB-231 [20]): 129 mm3; Activity (MDA-MB-231 [21]): 104 mm3; Activity (MDA-MB-231 [22]): 109 mm3; Activity (MDA-MB-231 [23]): 177 mm3; Activity (MDA-MB-231 [24]): 144 mm3
10 | COc1cc2c(=O)n(CCN(C)C)c3c4cc5c(cc4nnc3c2cc1OC)OCO5 | 2 | 0.3 | 5 | 230 | 2 | 4 | 740 | 4 | –
11 | COc1cc2c(=O)n(CCNC(CO)(CO)CO)c3c4cc5c(cc4nnc3c2cc1OC)OCO5 | 65 | 0.2 | 50 | 3000 | 40 | 280 | 5700 | 400 | –

Source: ChEMBL document CHEMBL1156616, “Syntheses and biological evaluation of topoisomerase I-targeting agents related to 11-[2-(N,N-dimethylamino)ethyl]-2,3-dimethoxy-8,9-methylenedioxy-11H-isoquino[4,3-c]cinnolin-12-one (ARC-31)” (Bioorg Med Chem, 2008)
